Reference: PMC5679212 (The Biochemical journal, 2014)
pKd: −log10 of the molar value.

Assays:
Assay type in all cases: binding
[1] = target: ULK4 (unc-51 like kinase 4) (Homo sapiens, UniProt Q96C45); assay: thermal-shift assay
[2] = target: T1, MLKL (mixed lineage kinase domain-like) (Homo sapiens, UniProt Q8NB16); assay: ITC and thermal-shift assay
T1 sequence (Q8NB16 190-471 limits assumed): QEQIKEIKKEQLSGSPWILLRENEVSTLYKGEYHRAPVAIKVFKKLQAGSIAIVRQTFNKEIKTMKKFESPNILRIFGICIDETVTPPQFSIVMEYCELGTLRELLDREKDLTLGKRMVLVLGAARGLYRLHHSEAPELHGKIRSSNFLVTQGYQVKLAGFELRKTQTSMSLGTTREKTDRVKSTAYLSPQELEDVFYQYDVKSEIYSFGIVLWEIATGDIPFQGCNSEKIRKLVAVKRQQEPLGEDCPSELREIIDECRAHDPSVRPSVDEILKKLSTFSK

[3] = target: T2, EphB6 (Ephrin type-B receptor 6) (Homo sapiens, UniProt O15197); assay: thermal-shift assay
T2 sequence (O15197 670-919 limits assumed): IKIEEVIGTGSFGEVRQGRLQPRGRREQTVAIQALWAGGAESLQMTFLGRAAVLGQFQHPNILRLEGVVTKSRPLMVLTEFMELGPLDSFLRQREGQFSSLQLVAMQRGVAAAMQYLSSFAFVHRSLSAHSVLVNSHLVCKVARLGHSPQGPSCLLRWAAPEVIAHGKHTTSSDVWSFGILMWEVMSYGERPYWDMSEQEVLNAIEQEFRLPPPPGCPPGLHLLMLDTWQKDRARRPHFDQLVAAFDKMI

TYK2(JH2) = TYK2(JH2) (Homo sapiens, UniProt P29597); assay: thermal-shift assay
Sequence of TYK2(JH2) (P29597 575-869): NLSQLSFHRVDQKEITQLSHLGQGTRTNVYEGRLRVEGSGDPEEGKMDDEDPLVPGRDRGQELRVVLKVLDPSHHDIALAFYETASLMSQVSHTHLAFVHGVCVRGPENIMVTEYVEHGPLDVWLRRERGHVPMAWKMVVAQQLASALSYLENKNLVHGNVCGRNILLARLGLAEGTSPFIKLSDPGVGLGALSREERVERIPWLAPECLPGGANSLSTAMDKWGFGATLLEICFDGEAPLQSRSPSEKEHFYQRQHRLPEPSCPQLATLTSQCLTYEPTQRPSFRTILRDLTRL

Sequence of ULK4 (unc-51 like kinase 4) (Q96C45 1-288 limits assumed): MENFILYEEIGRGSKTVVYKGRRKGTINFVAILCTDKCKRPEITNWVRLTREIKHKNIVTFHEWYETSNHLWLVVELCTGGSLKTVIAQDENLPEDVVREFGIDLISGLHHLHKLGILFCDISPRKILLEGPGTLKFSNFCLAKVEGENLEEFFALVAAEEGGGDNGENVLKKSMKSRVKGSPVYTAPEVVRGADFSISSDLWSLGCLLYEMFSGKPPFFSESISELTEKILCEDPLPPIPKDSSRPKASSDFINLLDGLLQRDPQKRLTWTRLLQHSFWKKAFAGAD

| SMILES | thermal-shift assay (0.2 mM nucleotide) [1] | pKd [2] | thermal-shift assay (0.2 mM nucleotide) [3] | thermal-shift assay (40 μM ligand, ΔTm ≥3 °C) (TYK2(JH2)) |
| --- | --- | --- | --- | --- |
| Nc1ncnc2c1ncn2[C@@H]1O[C@H](COP(=O)(O)OP(=O)(O)OP(=O)(O)O)[C@@H](O)[C@H]1O [ATP] | we observed that ATP binding was still accomplished by EphB6 and ULK4 (Figures 3C and 3E) | ~4.82 | we observed that ATP binding was still accomplished by EphB6 and ULK4 (Figures 3C and 3E) | – |
| NCc1ccc(Nc2ncc(F)c(Nc3ccccc3)n2)cc1 [DAP, N′2′-(4-aminomethyl-phenyl)-5-fluoro-N′4′-phenyl-pyrimidine-2,4-diamine] | – | – | – | consistent with the binding to the small-molecule kinase inhibitors DAP and VI16832 observed in the present study (Figure 2E) |
